Laboratory results: patent US8536183B2, “3-pyridylcarbonyl-piperazinylsulfonyl derivatives” (Convergence Pharmaceuticals Limited, priority 2008, dated 2013)
Counter-ions that a name gives are not always drawn.

The molecules below were run against T1, hCaV2.2 (Homo sapiens, UniProt Q00975) (assay: hCaV2.2 assay, IonWorks planar array electrophysiology in stably transfected HEK293 cells). Details: current elicited by the 1st depolarising pulse inhibited by 50%; HEK293 cells expressing human CaV2.2 alpha/beta3/alpha2delta1; read-out: mean pIC50 (tonic pIC50) (converted).
T1 construct: expressed in transfected cells; plasmids pCIN5-hCaV2.2, pCIH-hCaV β3, pCIP-α2δ1
T1 sequence (Q00975 whole entry): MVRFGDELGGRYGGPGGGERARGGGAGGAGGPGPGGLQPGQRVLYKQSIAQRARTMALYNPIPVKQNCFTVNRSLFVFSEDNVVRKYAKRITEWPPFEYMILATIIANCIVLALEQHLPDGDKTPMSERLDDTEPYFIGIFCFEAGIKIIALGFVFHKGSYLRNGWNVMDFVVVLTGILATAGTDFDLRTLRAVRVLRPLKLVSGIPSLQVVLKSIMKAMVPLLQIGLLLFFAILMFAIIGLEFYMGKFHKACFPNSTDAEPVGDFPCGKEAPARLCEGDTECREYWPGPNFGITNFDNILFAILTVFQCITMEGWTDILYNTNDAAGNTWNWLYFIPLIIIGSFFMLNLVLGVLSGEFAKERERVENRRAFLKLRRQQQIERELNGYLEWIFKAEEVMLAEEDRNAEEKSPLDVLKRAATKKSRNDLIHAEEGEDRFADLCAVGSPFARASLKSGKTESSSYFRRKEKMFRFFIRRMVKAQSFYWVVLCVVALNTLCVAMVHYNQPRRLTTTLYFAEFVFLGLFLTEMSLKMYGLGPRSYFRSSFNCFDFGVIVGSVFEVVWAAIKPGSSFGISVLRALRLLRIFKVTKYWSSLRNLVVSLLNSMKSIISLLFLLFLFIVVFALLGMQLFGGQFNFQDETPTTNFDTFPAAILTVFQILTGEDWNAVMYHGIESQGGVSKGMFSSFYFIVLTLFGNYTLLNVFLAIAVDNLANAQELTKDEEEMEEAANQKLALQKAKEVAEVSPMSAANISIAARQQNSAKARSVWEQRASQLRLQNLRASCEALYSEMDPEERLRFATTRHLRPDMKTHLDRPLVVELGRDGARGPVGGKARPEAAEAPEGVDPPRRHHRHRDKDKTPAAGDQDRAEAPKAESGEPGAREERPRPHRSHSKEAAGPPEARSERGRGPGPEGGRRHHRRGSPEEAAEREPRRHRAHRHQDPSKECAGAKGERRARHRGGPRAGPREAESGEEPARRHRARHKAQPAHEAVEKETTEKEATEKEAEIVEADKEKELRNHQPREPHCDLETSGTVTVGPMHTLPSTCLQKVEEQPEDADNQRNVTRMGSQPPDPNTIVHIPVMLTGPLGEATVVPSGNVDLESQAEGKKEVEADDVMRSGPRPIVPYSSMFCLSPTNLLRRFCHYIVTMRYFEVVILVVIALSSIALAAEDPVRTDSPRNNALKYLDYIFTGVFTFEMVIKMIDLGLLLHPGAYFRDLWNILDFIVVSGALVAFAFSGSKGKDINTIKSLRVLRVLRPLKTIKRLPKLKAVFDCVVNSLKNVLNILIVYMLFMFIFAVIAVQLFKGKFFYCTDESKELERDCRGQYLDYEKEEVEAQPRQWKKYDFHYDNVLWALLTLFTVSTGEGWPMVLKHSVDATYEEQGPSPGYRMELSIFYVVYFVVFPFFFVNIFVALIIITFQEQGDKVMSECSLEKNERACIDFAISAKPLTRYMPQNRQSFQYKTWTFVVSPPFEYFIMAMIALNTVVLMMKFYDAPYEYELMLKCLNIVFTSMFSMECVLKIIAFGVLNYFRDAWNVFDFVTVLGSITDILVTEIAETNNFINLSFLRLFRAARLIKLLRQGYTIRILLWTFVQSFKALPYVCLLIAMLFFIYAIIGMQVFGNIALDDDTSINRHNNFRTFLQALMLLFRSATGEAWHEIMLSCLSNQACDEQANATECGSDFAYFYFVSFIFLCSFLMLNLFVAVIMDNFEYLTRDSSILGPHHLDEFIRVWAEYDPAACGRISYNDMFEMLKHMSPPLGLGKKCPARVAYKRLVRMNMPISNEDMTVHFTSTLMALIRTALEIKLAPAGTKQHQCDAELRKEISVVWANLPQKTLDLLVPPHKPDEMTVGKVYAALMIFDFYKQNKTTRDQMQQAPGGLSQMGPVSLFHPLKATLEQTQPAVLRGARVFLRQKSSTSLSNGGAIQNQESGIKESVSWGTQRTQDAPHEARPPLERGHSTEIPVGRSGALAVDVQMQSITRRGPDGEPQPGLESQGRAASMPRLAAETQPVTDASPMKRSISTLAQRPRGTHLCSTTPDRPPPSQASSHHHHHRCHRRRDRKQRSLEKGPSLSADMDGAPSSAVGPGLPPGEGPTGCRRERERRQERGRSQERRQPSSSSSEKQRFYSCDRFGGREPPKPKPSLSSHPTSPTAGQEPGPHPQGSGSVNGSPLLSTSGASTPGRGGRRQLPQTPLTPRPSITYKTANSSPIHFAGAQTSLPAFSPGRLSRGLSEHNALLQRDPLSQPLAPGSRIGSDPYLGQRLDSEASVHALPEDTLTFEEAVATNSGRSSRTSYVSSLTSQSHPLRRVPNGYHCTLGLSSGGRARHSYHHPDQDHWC
Assay type: cell-based
Protocol: Compounds of the invention may be tested for in vitro biological activity in the hCaV2.2 assay in accordance with the following studies:
Stable cell lines expressing the human CaV2.2 α (als) subunit, along with the human […] and α2δ1 auxiliary subunits were created following sequential transfection and selection of human embryonic kidney (HEK293) cells. HEK293 cells were cultured in Dulbecco's modified Eagles media/F12 media (Invitrogen, Cat #041-95750V) containing 10% foetal bovine serum, with added L-glutamine (2 mM; Invitrogen, Cat #25030-024) and non-essential amino acids (5%; Invitrogen, Cat #11140-035). Initially HEK293 cells were transfected with two plasmid vectors for expression of the hCaV2.2 α subunit (pCIN5-hCaV2.2 which carries a neomycin resistance marker) and the hCaV β3 subunit (pCIH-hCaV β3 which carries a hygromycin resistance marker). Clonal cell lines were isolated following selection in media supplemented with 0.4 mg ml^−1 Geneticin G418 (Invitrogen, Cat #10131-027) and 0.1 mg ml^1 hygromycin (Invitrogen, Cat #10687-010). These clonal cell lines were assessed for Cav2.2α/β3-mediated current expression using the IonWorks planar array electrophysiology technology (described below). A clonal line was identified that gave a reasonable level of functional Cav2.2α/β3 current expression. This cell line was transfected with a plasmid vector for expression of the human […] subunit (pCIP-α2δ1 which carries a puromycin resistance marker) and clonal cell lines isolated following selection in media containing 0.62 μg ml^−1 puromycin (Sigma, Cat #P-7255), in addition to 0.4 mg ml^−1 Geneticin G418 and 0.1 mg ml^−1 hygromycin. Several cell lines were identified that gave robust levels of Cav2.2α/β3/α2δ1-mediated current expression and one of these was selected for compound profiling. Expression of all three subunits within this cell line was continuously maintained by the inclusion of G418 (0.4 mg ml^−1), hygromycin (0.1 mg ml^−1) and puromycin (0.62 μg ml^−1). Cells were maintained at 37° C. in a humidified environment containing 5% CO2 in air. Cells were liberated from the T175 culture flasks for passage and harvesting using TrpLE (Invitrogen, Cat #12604-013).
Cells were grown to 30-60% confluence in T175 flasks and maintained at 30° C. for 24 hrs prior to recording. Cells were lifted by removing the growth media, washing with Ca^2+ free PBS (Invitrogen, Cat #14190-094) and incubating with 3 ml of warmed (37° C.) TrpLE (Invitrogen, Cat #12604-013) for 6 minutes. Lifted cells were suspended in 10 ml of extracellular buffer. Cell suspension was then placed into a 15 ml tube and centrifuged for 2 minutes at 700 rpm. After centrifugation, the supernatant was removed and the cell pellet was resuspended in 4.5 ml of extracellular solution.
Currents were recorded at room temperature (21-23° C.) using the IonWorks planar array electrophysiology technology (Molecular Devices Corp.). Stimulation protocols and data acquisition were carried out using a microcomputer (Dell Pentium 4). In order to determine planar electrode hole resistances (Rp), a 10 mV, 160 ms potential difference was applied across each hole. These measurements were performed before cell addition. After cell addition a seal test was performed prior to antibiotic (amphotericin) circulation to achieve intracellular access. Leak subtraction was conducted in all experiments by applying a 160 ms hyperpolarizing (10 mV) prepulse 200 ms before the test pulses to measure leak conductance. Test pulses stepping from the holding potential (VH) of −90 mV to +10 mV were applied for 20 ms and repeated 10 times at a frequency of 10 Hz. In all experiments, the test pulse protocol was performed in the absence (pre-read) and presence (post-read) of a compound. Pre- and post-reads were separated by a compound addition followed by a 3-3.5 min incubation.
The intracellular solution contained the following (in mM): K-gluconate 120, KCl 20 mM, MgCl2 5, EGTA 5, HEPES 10, adjusted to pH 7.3. […]

IC50 [µM] | SMILES
≥ 31.6 | Cc1ncccc1C(=O)N1CCN(S(=O)(=O)c2ccc(C(F)(F)F)cc2)[C@H](C)C1 [Example 10, (2R)-2-Methyl-4-[(2-methyl-3-pyridinyl)carbonyl]-1-{[4-(trifluoromethyl)phenyl]sulfonyl}piperazine formic acid salt]
≥ 31.6 | Cc1ccc(C(=O)N2CCN(S(=O)(=O)c3ccc(C#N)cc3C)C[C@H]2C)cn1 [Example 63, 3-methyl-4-({(3R)-3-methyl-4-[(6-methyl-3-pyridinyl)carbonyl]-1-piperazinyl}sulfonyl)benzo-nitrile]
≥ 10 | CNc1ccc(C(=O)N2CCN(S(=O)(=O)c3ccc(C(F)(F)F)cc3)C[C@@H]2C)cn1 [Example 44, Methyl-5-[((2S)-2-methyl-4-{[4-(trifluoromethyl)phenyl]sulfonyl}-1-piperazinyl)carbonyl]-2-pyridinamine hydrochloride]
≥ 31.6 | O=C(c1ccc(N2CCCC2)nc1)N1CCN(S(=O)(=O)c2ccc(C(F)(F)F)cc2)CC1 [Example 69, 1-{[6-(1-pyrrolidinyl)-3-pyridinyl]carbonyl}-4-{[4-(trifluoromethyl)phenyl]sulfon-yl}piperazine]
≥ 31.6 | CCc1ccc(C(=O)N2CCN(S(=O)(=O)c3ccc(C#N)cc3C)C[C@@H]2C)cn1 [Example 53, 4-({(3S)-4-[(6-ethyl-3-pyridinyl)carbonyl]-3-methyl-1-piperazinyl}sulfonyl)-3-methylbenzonitrile hydrochloride]
≥ 10 | C[C@H]1CN(S(=O)(=O)c2ccc(C(F)(F)F)cc2)CCN1C(=O)c1ccc(N(C)C)nc1 [Example 41, N,N-Dimethyl-5-[((2S)-2-methyl-4-{[4-(trifluoromethyl)phenyl]sulfonyl}-1-piperazinyl)carbonyl]-2-pyridinamine hydrochloride]
≥ 31.6 | Nc1ccc(C(=O)N2CCN(S(=O)(=O)c3ccc(C(F)(F)F)cc3)CC2)cn1 [Example 66, 5-[(4-{[4-(trifluoromethyl)phenyl]sulfon-yl}-1-piperazinyl)carbonyl]-2-pyridinamine]
≥ 31.6 | O=C(c1ccc(NC2CCOCC2)nc1)N1CCN(S(=O)(=O)c2ccc(C(F)(F)F)cc2)CC1 [Example 70, N-(tetrahydro-2H-pyran-4-yl)-5-[(4-{[4-(trifluoromethyl)phenyl]sulfon-yl}-1-piperazinyl)carbonyl]-2-pyridinamine]
≥ 31.6 | Cc1ccc(C(=O)N2CCN(S(=O)(=O)c3ccc(C#N)cc3)C[C@@H]2C)cn1 [Example 72, 4-({(3S)-3-methyl-4-[(6-methyl-3-pyridinyl)carbonyl]-1-piperazinyl}sulfonyl)benzo-nitrile]
≥ 31.6 | COc1ncccc1C(=O)N1CCN(S(=O)(=O)c2ccc(C(F)(F)F)cc2)C[C@@H]1C [Example 15, (2S)-2-Methyl-1-{[2-(methyloxy)-3-pyridinyl]carbonyl}-4-{[4-(trifluoromethyl)phenyl]sulfonyl}piperazine]
≥ 10 | Cc1ccc(C(=O)N2CCN(S(=O)(=O)c3ccc(C(F)(F)F)cc3)C[C@@H]2C)c(C)n1 [Example 29, (2S)-1-[(2,6-Dimethyl-3-pyridinyl)carbonyl]-2-methyl-4-{[4-(trifluoromethyl)phenyl]sulfonyl}piperazine]
≥ 31.6 | Cc1ncccc1C(=O)N1CCN(S(=O)(=O)c2ccc(C(F)(F)F)cc2)C[C@H]1C [Example 20, (2R)-2-methyl-1-[(2-methyl-3-pyridinyl)carbonyl]-4-{[4-(trifluoromethyl)phenyl]sulfonyl}piperazine formic acid salt (1:1)]
≥ 31.6 | COc1ccc(C(=O)N2CCN(S(=O)(=O)c3ccc(C(F)(F)F)cc3)C[C@@H]2C)cn1 [Example 14, (2S)-2-Methyl-1-{[6-(methyloxy)-3-pyridinyl]carbonyl}-4-{[4-(trifluoromethyl)phenyl]sulfonyl}piperazine]
≥ 10 | C[C@H]1CN(S(=O)(=O)c2ccc(C(F)(F)F)cc2)CCN1C(=O)c1cncc(Br)c1 [Example 28, (2S)-1-[(5-Bromo-3-pyridinyl)carbonyl]-2-methyl-4-{[4-(trifluoromethyl)phenyl]sulfonyl}piperazine]
≥ 31.6 | O=C(c1ccc(N2CCOCC2)nc1)N1CCN(S(=O)(=O)c2ccc(C(F)(F)F)cc2)CC1 [Example 6, 4-{5-[(4-{[4-(Trifluoromethyl)phenyl]sulfonyl}-1-piperazinyl)carbonyl]-2-pyridinyl}morpholine]
≥ 31.6 | C[C@H]1CN(S(=O)(=O)c2ccc(C(F)(F)F)cc2)CCN1C(=O)c1ccc(C#N)nc1 [Example 13, 5-[((2S)-2-Methyl-4-{[4-(trifluoromethyl)phenyl]sulfonyl}-1-piperazinyl)carbonyl]-2-pyridinecarbonitrile]
≥ 31.6 | Cc1ccc(C(=O)N2CCN(S(=O)(=O)c3ccc(OC(F)F)cc3)C[C@@H]2C)cn1 [Example 22, (2S)-4-({4-[(Difluoromethyl)oxy]phenyl}sulfonyl)-2-methyl-1-[(6-methyl-3-pyridinyl)carbonyl]piperazine]
≥ 10 | C[C@H]1CN(S(=O)(=O)c2ccc(C(F)(F)F)cc2)CCN1C(=O)c1ccc(N2CCC2)nc1 [Example 45, (2S)-1-{[6-(1-Azetidinyl)-3-pyridinyl]carbonyl}-2-methyl-4-{[4-(trifluoromethyl)phenyl]sulfonyl}piperazine hydrochloride]
≥ 31.6 | Cc1ccc(C(F)(F)F)cc1S(=O)(=O)N1CCN(C(=O)c2cccnc2C)CC1 [Example 62, 1-[(2-methyl-3-pyridinyl)carbonyl]-4-{[2-methyl-5-(trifluoromethyl)phenyl]sulfon-yl}piperazine]
≥ 31.6 | Cc1ncccc1C(=O)N1CCN(S(=O)(=O)c2ccc(C(F)(F)F)cc2)[C@@H](C)C1 [Example 12, (2S)-2-Methyl-4-[(2-methyl-3-pyridinyl)carbonyl]-1-{[4-(trifluoromethyl)phenyl]sulfonyl}piperazine formic acid salt]
≥ 31.6 | Cc1cncc(C(=O)N2CCN(S(=O)(=O)c3ccc(C(F)(F)F)cc3)C[C@@H]2C)c1 [Example 16, (2S)-2-Methyl-1-[(5-methyl-3-pyridinyl)carbonyl]-4-{[4-(trifluoromethyl)phenyl]sulfonyl}piperazine]
≥ 10 | Cc1cc(C#N)ccc1S(=O)(=O)N1CCN(C(=O)c2ccc(N(C)C)nc2C)[C@@H](C)C1 [Example 30, 4-[((3S)-4-{[6-(Dimethylamino)-2-methyl-3-pyridinyl]carbonyl}-3-methyl-1-piperazinyl)sulfonyl]-3-methylbenzonitrile hydrochloride]
≥ 10 | Cc1nc(N2CCOCC2)ccc1C(=O)N1CCN(S(=O)(=O)c2ccc(C(F)(F)F)cc2)C[C@@H]1C [Example 34, 4-{6-Methyl-5-[((2S)-2-methyl-4-{[4-(trifluoromethyl)phenyl]sulfonyl}-1-piperazinyl)carbonyl]-2-pyridinyl}morpholine hydrochloride]
≥ 31.6 | Cc1ccc(C(=O)N2CCN(S(=O)(=O)c3ccc(C(F)(F)F)cc3)[C@H](C)C2)cn1 [Example 9, (2R)-2-Methyl-4-[(6-methyl-3-pyridinyl)carbonyl]-1-{[4-(trifluoromethyl)phenyl]sulfonyl}piperazine formic acid salt]
≥ 31.6 | Cc1ccc(C(=O)N2CCN(S(=O)(=O)c3cc(C(F)(F)F)ccc3C)C[C@@H]2C)cn1 [Example 59, (2S)-2-methyl-1-[(6-methyl-3-pyridinyl)carbonyl]-4-{[2-methyl-5-(trifluoromethyl)phenyl]sulfon-yl}piperazine]
